Where two headings read alike, the source gives them in different places.

One assay concerns HBV. Description: Anti-HBV activity: HBV DNA replication. Type of assay: cell-based, Hepatitis B virus. The settings on record: for Anti-HBV activity (in words): HepAD38 cells.
For assay [1], the system named is HBeAg secretion (HBV cccDNA formation). The experiment in a line: HBeAg reporter cell-based assay. The following applies: for Effect on secretion of HBeAg (in words): 3TC and ETV at 10 μM. The arrangement: species or system Hepatitis B virus.
A further assay addresses HBV Cp149 (Hepatitis B virus genotype D subtype ayw, UniProt P03146). Description: HBV Cp149 capsid formation by negative-stain electron microscopy. Type of assay: biochemical. The following applies: 20 μM, 1 hr pre-incubation, assembly induced with NaCl overnight.
Setting [2] is: Hepatitis B virus, HePAD38, read-out: HBeAg Secretion EC90, HepAD38 cells, ELISA.
Setting [3] is: read-out: HBeAg Secretion EC90, HepAD38 cells, ELISA.

Chain of HBV Cp149 (P03146 1-149): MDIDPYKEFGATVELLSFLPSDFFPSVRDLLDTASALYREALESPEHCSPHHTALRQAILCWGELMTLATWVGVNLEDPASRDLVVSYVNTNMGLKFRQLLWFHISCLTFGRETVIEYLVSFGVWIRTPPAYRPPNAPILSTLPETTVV

As to `Nc1ccn([C@@H]2CS[C@H](CO)O2)c(=O)n1` [Compound 3TC, lamivudine, reference compound], the EC50 with HBV (Hepatitis B virus, HePAD38, read-out: HBV DNA – Extracellular EC50) is 40 ± 30 nM. Also, the “Effect on secretion of HBeAg (in words)” value in assay [1] (HepAD38 cells) is given as “no effect”.
`O=C(Nc1ccc(F)c(F)c1)c1cc(S(=O)(=O)NC2CCCC2)ccc1F` [Compound 4a, 5-(N-Cyclopentylsulfamoyl)-N-(3,4-difluorophenyl)-2-fluorobenzamide]: the EC90 in assay [1] (setting [2]) is 3000 to 4000 nM; in assay [1] (setting [3]) it was 4600 ± 2000 nM. In addition, on HBV Cp149, the “Effect on HBV Cp149 capsid formation (morphology, negative-stain TEM)” value (“Effect … (morphology, negative-stain TEM)” below) is “form greater numbers of disfigured circular assemblies”.
Regarding `O=C(Nc1ccc(F)c(F)c1)c1cc(S(=O)(=O)N2CC(F)(F)C2)ccc1F` [Compound 4f, 5-((3,3-Difluoroazetidin-1-yl)sulfonyl)-N-(3,4-difluorophenyl)-2-fluorobenzamide], the EC90 in assay [1] (setting [2]) was 3000 to 4000 nM; in assay [1] (setting [3]), 3200 ± 10 nM. Moreover, the “Effect … (morphology, negative-stain TEM)” value on HBV Cp149 is on record as “a large number of incomplete, but typically spherical capsids aggregated into clusters”.
On to `O=C(Nc1cc(S(=O)(=O)NC2CCCC2)ccc1F)c1ccc(F)c(F)c1` [Compound 16, N-(5-(N-Cyclopentylsulfamoyl)-2-fluorophenyl)-3,4-difluorobenzamide], for which, in the assay with HBV, the “Anti-HBV activity (in words)” value was “complete loss of activity”.
Still for that read-out and setting: the result for `O=C(NC1(c2ccc(F)c(F)c2)CC1)c1cc(S(=O)(=O)NC2CCCC2)ccc1F` [Compound 19, 5-(N-Cyclopentylsulfamoyl)-N-(1-(3,4-difluorophenyl)cyclopropyl)-2-fluorobenzamide] reads “complete loss of activity”.
Turning to `CC(C)(NC(=O)c1cccc(S(=O)(=O)NC2CCCC2)c1)c1ccc(F)c(F)c1` [Compound 21, 3-(N-Cyclopentylsulfamoyl)-N-(2-(3,4-difluorophenyl)propan-2-yl)benzamide], the “Anti-HBV activity (in words)” value with HBV was “complete loss of activity”. Further, at HBV Cp149, the “Effect … (morphology, negative-stain TEM)” value is on record as “properly formed HBV Cp149 capsids”.
As to `C=C1[C@H](CO)[C@@H](O)C[C@@H]1n1cnc2c(=O)[nH]c(N)nc21.O` [ETV, entecavir], the “Effect on secretion of HBeAg (in words)” value in assay [1] (HepAD38 cells) is listed as “no effect”.
As for `CCOC(=O)C1=C(CN2CCOCC2)NC(c2nccs2)=NC1c1ccc(F)cc1Br` (stereo not shown) [GLS-4], the “Effect on secretion of HBeAg (in words)” value in assay [1] (HepAD38 cells) is reported as “reduced secretion of HBeAg”. The results for the EC90 in assay [1] (setting [2]) and in assay [1] (setting [3]) were 2000 nM and 1900 ± 40 nM, respectively.

The term EC50 denotes the concentration at which the effect is half-maximal. Broadly, the EC90 is the concentration at which the effect reaches the 90% level.

Source of the values: PMC5581232 (European journal of medicinal chemistry, 2017).
